How the values were obtained:
[1] = molecular target: Aurora kinase B (Homo sapiens) (UniProt Q96GD4); test: Aurora-B(h) Eurofins kinase panel; conditions: Compound concentration 1.0 uM
[2] = molecular target: Macrophage colony-stimulating factor 1 receptor (Homo sapiens) (UniProt P07333); test: Fms(h) Eurofins kinase panel; conditions: Compound concentration 1.0 uM
[3] = molecular target: Insulin-like growth factor 1 receptor (Homo sapiens) (UniProt P08069); test: IGF-1R(h), activated Eurofins kinase panel; conditions: Compound concentration 1.0 uM
[4] = molecular target: Serine/threonine-protein kinase NIM1 (Homo sapiens) (UniProt Q8IY84); test: NIM1(h) Eurofins kinase panel; conditions: Compound concentration 1.0 uM
[5] = molecular target: RAC-beta serine/threonine-protein kinase (Homo sapiens) (UniProt P31751); test: PKBbeta (h) Eurofins kinase panel; conditions: Compound concentration 1.0 uM
[6] = molecular target: T1, cGMP-dependent protein kinase 2 (Homo sapiens) (UniProt Q13237); test: PRKG2(h) Eurofins kinase panel; conditions: Compound concentration 1.0 uM
T1 sequence (whole entry): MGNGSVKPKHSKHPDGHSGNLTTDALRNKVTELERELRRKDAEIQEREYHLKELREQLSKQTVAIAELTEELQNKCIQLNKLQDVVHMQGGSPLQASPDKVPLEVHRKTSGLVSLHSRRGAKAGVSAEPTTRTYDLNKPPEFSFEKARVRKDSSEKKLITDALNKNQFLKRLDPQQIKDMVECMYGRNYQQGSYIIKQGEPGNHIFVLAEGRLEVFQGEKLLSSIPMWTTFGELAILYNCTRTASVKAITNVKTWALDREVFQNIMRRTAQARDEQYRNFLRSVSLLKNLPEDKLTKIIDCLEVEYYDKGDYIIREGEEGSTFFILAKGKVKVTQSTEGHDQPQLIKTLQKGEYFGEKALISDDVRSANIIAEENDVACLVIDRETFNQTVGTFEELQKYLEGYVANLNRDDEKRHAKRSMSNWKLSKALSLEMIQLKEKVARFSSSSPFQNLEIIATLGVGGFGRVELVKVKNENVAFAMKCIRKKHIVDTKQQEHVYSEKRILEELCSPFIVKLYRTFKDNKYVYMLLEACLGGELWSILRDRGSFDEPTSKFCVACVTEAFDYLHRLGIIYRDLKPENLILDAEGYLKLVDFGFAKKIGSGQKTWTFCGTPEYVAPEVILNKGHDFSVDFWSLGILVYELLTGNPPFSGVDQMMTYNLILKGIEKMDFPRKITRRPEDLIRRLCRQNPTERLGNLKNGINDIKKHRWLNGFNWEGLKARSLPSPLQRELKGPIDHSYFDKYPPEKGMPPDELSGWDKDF

[7] = molecular target: Serine/threonine-protein kinase N1 (Homo sapiens) (UniProt Q16512); test: PRK1(h) Eurofins kinase panel; conditions: Compound concentration 1.0 uM
[8] = molecular target: STE20-like serine/threonine-protein kinase (Homo sapiens) (UniProt Q9H2G2); test: SLK(h) Eurofins kinase panel; conditions: Compound concentration 1.0 uM
[9] = molecular target: T2, Serine/threonine-protein kinase ULK3 (Homo sapiens) (UniProt Q6PHR2); test: ULK3(h) Eurofins kinase panel; conditions: Compound concentration 1.0 uM
T2 sequence (whole entry): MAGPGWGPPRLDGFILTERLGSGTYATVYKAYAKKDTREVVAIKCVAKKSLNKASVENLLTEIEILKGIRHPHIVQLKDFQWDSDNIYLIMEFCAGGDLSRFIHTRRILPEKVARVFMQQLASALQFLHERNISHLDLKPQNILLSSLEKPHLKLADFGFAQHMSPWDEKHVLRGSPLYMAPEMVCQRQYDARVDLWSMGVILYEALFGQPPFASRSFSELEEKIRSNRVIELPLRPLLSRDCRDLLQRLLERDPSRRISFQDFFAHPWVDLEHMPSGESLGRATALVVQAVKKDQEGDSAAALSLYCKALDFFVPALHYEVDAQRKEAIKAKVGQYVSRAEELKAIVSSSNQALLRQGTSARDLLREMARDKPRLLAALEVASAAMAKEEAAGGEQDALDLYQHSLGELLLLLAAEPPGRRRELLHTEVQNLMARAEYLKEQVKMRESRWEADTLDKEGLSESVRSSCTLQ

[10] = molecular target: T3, Tyrosine-protein kinase ZAP-70 (Homo sapiens) (UniProt P43403); test: ZAP-70(h) Eurofins kinase panel; conditions: Compound concentration 1.0 uM
T3 sequence (whole entry): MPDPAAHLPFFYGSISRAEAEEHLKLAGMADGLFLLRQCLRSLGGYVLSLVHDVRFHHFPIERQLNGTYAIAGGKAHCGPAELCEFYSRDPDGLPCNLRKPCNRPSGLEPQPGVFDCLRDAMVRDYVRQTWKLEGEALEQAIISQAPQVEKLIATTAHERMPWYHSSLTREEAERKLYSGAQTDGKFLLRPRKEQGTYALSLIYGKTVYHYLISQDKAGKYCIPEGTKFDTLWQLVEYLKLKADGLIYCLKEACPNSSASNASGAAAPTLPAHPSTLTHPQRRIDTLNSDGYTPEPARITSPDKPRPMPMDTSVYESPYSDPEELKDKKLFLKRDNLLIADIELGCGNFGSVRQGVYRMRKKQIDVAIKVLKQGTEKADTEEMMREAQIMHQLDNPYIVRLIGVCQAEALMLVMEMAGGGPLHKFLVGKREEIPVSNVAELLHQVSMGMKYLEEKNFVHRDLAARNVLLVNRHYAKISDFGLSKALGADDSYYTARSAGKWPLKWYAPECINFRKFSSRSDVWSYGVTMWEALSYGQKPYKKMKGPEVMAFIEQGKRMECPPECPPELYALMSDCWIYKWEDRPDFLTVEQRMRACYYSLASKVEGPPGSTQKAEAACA

[11] = molecular target: Phosphatidylinositol 4-phosphate 3-kinase C2 domain-containing subunit alpha (Homo sapiens) (UniProt O00443); test: PI3KC2a(h) Eurofins kinase panel; conditions: Compound concentration 1.0 uM
SU-DHL10 = test: SU-DHL-10 cell line Proliferation assay; assay type: functional, Homo sapiens; conditions: time 3 day
Rec1 = test: REC-1 cell line Proliferation assay; assay type: functional, Homo sapiens; conditions: time 3 day
Daudi = test: Daudi cell line Proliferation assay; assay type: functional, Homo sapiens; conditions: time 3 day
NCI-H292 = test: NCI- H292 cell line Proliferation assay; assay type: functional, Homo sapiens; conditions: time 3 day
LNCaP C4-2B = test: C4-2B cell line Proliferation assay; assay type: functional, Homo sapiens; conditions: time 6 day
[12] = GPCRScan assay: inhibition of GABA/PBR; set-up: species or system Rattus norvegicus; radioligand conc. used [nm] 0.3 – 2.0, parental cells brain tissue

Sequence of Serine/threonine-protein kinase NIM1 (Homo sapiens) (Q8IY84 whole entry): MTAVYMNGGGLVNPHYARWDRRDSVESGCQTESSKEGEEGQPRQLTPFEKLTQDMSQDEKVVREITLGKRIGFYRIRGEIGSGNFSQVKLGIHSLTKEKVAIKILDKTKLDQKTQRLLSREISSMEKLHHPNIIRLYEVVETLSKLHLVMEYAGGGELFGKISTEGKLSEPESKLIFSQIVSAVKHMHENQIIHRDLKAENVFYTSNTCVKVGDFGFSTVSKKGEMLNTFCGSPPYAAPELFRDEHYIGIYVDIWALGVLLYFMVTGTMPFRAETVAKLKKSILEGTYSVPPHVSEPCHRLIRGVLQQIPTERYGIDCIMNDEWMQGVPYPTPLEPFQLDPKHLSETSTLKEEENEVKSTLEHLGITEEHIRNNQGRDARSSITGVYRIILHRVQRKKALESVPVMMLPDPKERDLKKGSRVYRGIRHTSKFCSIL
Sequence of Macrophage colony-stimulating factor 1 receptor (Homo sapiens) (P07333 whole entry): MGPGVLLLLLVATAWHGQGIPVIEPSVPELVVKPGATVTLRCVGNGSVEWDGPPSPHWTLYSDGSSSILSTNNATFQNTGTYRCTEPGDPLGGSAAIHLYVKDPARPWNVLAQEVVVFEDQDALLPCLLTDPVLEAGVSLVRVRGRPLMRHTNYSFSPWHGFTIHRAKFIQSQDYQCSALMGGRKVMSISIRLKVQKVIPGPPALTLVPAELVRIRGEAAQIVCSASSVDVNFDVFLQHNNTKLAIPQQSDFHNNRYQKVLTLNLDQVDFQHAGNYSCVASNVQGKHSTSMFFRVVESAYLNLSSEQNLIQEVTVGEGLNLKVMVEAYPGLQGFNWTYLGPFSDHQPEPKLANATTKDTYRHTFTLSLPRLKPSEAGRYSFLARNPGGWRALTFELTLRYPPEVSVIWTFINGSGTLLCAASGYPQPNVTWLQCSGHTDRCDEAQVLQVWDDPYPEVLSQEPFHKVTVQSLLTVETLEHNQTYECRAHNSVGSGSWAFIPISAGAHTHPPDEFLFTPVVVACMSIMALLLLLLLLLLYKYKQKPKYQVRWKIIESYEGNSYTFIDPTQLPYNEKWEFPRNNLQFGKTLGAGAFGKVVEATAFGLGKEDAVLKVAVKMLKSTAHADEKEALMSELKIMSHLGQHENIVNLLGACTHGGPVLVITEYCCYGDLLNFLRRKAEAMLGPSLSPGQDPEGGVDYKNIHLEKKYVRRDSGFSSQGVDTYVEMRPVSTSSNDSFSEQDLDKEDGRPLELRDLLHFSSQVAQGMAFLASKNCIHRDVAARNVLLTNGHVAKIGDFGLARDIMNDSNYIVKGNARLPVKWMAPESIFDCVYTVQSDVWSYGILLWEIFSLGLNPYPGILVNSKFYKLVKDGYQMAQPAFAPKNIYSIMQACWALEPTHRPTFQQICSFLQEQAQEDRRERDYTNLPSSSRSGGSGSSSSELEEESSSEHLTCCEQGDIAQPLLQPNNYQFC
Sequence of Aurora kinase B (Homo sapiens) (Q96GD4 whole entry): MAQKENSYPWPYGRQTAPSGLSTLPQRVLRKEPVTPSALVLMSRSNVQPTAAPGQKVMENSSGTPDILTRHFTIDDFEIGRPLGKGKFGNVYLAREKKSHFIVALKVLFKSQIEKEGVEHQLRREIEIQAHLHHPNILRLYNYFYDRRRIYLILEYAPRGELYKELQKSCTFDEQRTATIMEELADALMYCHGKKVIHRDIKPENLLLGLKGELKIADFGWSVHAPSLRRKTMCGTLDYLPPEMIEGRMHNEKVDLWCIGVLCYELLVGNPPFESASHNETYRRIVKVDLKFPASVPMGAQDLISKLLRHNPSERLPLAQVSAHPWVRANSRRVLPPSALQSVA
Sequence of Insulin-like growth factor 1 receptor (Homo sapiens) (P08069 31-736 limits assumed): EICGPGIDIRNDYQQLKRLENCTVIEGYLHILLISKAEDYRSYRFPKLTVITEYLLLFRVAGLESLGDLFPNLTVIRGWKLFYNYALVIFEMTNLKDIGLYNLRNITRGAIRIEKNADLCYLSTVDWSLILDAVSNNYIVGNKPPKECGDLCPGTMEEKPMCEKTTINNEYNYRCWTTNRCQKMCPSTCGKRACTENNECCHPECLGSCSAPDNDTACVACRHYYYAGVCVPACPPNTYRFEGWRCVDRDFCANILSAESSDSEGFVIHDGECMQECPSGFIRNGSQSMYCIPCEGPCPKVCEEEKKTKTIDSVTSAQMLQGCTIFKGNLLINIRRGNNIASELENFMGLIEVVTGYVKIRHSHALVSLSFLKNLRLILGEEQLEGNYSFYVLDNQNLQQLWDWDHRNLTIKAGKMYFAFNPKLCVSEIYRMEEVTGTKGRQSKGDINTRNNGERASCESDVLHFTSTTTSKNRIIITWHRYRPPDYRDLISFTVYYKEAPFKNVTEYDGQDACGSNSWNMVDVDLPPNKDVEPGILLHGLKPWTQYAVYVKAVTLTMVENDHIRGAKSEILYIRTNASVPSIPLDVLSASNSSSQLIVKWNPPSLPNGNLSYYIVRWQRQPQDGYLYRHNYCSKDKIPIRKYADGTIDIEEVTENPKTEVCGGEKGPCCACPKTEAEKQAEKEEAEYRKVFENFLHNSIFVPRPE
Sequence of Insulin-like growth factor 1 receptor (Homo sapiens) (P08069 741-1367 limits assumed): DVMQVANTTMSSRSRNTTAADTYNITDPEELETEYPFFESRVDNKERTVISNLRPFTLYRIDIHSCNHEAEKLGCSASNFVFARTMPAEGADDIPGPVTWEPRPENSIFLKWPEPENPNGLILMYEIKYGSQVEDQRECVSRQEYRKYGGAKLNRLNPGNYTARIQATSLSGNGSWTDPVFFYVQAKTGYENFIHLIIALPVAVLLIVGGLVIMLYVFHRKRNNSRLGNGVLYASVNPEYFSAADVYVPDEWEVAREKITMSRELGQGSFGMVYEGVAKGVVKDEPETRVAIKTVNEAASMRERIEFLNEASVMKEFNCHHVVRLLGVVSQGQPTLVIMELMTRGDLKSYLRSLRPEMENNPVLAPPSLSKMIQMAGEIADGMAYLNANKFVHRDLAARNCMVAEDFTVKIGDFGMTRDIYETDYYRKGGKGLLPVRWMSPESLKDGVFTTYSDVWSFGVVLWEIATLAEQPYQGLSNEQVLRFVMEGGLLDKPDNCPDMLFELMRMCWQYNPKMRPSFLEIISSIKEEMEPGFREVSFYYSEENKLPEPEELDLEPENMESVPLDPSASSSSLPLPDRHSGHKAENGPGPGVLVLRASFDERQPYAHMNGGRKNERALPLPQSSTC
Sequence of RAC-beta serine/threonine-protein kinase (Homo sapiens) (P31751 whole entry): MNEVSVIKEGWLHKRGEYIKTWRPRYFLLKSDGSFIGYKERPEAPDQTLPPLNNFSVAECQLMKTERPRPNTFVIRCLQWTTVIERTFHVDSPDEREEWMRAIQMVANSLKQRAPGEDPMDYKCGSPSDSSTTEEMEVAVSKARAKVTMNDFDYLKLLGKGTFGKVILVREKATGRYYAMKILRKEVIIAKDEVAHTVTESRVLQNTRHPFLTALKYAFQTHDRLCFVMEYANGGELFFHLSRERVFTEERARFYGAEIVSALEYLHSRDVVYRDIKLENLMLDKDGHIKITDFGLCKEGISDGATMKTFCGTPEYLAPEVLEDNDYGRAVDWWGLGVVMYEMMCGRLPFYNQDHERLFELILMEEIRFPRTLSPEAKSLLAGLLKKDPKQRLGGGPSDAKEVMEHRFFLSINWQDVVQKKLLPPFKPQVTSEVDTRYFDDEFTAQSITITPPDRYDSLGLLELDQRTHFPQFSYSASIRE
Sequence of STE20-like serine/threonine-protein kinase (Homo sapiens) (Q9H2G2 whole entry, looked up): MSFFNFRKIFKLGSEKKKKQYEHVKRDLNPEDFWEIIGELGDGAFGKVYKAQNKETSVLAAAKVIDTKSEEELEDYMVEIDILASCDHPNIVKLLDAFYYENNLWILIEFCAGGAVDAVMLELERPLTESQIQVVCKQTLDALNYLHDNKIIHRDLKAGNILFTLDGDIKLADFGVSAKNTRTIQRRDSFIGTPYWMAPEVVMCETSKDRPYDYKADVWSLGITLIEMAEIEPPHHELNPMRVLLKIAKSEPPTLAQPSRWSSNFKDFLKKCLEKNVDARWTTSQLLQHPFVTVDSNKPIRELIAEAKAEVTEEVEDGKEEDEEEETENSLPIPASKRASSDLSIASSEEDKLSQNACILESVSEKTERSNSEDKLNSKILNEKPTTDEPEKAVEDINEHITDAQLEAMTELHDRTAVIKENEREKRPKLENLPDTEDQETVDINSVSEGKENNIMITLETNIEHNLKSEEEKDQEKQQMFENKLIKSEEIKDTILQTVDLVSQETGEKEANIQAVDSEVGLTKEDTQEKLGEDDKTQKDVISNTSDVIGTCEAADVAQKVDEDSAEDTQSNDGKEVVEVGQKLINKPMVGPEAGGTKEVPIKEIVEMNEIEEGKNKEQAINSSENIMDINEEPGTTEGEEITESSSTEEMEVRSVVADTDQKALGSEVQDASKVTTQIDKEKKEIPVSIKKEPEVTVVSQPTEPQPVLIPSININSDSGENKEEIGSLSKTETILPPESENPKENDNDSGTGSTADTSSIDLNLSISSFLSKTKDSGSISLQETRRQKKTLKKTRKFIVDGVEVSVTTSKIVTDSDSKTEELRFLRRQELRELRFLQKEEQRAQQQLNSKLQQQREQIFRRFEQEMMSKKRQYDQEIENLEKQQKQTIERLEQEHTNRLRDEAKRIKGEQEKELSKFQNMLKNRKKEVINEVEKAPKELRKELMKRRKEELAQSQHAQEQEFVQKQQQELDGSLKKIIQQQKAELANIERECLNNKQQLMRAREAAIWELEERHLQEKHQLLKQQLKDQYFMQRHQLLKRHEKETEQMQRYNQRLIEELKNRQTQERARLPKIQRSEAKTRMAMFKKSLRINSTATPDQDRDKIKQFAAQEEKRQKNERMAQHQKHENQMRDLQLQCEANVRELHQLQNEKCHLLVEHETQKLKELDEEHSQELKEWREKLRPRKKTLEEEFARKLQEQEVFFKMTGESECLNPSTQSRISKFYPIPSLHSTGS

Compound	% residual kinase activity [1]	% residual kinase activity [2]	% residual kinase activity [3]	% residual kinase activity [4]	% residual kinase activity [5]	% residual kinase activity [6]	% residual kinase activity [7]	% residual kinase activity [8]	% residual kinase activity [9]	% residual kinase activity [10]	% residual kinase activity [11]	Cell Proliferation IC50 (SU-DHL10)	Cell Proliferation IC50 (Rec1)	Cell Proliferation IC50 (Daudi)	Cell Proliferation IC50 (NCI-H292)	Cell Proliferation IC50 (LNCaP C4-2B)	Ki [12]	pKi [12]
CCc1ccccc1C(=O)Nc1n[nH]c2c(C)c(F)c(C3C(C#N)=C(C)N(C)C(C)=C3C#N)cc12 [BAY-3827]	76%	99%	121%	93%	105%	79%	74%	101%	59%	119%	103%	12.5 µM	3.3 µM	22.9 µM	17.1 µM	>10 µM		
CC1=C(C#N)C(c2ccc3c(c2)c(NC(=O)c2ccccc2C)nn3C)C(C#N)=C(C)N1 [BAY-974]																	0.021 µM	7.69

Source: ChEMBL document CHEMBL4507319 (2021)
